# Test results reported in patent US5508295A, “Use of amino acyl amino propargyl diol compounds for treatment of glaucoma” (G. D. Searle & Co., priority 1994, dated 1996).
# Non-standard residues stand in square brackets, D forms with d. Residues, ends and D or L forms follow the SMILES beside them. *: point of attachment. Sta = CC(C)C[C@H](N)[C@@H](O)CC(=O)O; Isovaleryl = CC(C)CC(=O)*
# Legend:
# human renin = biological target: T1, human renin (Homo sapiens, UniProt P00797); test: Human Renin Inhibition in vitro (angiotensin I by radioimmunoassay); format: biochemical; conditions: pH 7.4, two hours at 37° C.
# T1 construct: purchased National Institute for Biological Standards, London
# T1 sequence (P00797 67-406): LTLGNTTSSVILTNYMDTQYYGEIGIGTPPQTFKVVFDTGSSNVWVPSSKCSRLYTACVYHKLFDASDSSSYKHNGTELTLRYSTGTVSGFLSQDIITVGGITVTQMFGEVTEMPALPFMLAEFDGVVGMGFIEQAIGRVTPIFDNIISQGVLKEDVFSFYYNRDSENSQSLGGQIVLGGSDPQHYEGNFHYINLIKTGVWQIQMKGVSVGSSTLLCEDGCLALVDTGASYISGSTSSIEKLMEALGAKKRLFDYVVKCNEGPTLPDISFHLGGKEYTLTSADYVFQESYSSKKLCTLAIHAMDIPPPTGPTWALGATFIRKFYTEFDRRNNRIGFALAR
# Procedure: Compounds of Formula I were evaluated as inhibitors of human renin in an in vitro assay, as follows: This human renin inhibition test has been previously described in detail [Papaioannou et al., Clinical and Experimental Hypertension, A7(9), 1243-1257 (1985)]. Human renin was obtained from the National Institute for Biological Standards, London. An incubation mixture was prepared containing the following components: in a total volume of 0.25 mL: 100 mM Tris-acetate buffer at pH 7.4, 25×10-6 Goldblatt units of renin, 0.05 mL of plasma from human volunteers taking oral contraceptives, 6.0 mM Na-EDTA, 2.4 mM phenylmethyl sulfonyl fluoride, 1.5 mM 8-hydroxyquinoline, 0.4 mg/mL bovine serum albumin (BSA), and 0.024 mg/mL neomycin sulfate. This mixture was incubated for two hours at 37° C. in the presence or absence of renin inhibitors. The produced angiotensin I was determined by radioimmunoassay (New England Nuclear kit). Test compounds to be assayed were dissolved in DMSO and diluted with 100 mM Tris-acetate buffer at pH 7.4 containing 0.5% BSA to the appropriate concentration. The final concentration of organic solvent in the reaction mixture was less than 1%. Control incubations at 37° C. were used to correct for effects of organic solvent on renin activity.
# cathepsin D = conditions: Umezawa et al, J. Antibiot. 1970; cited from earlier work
# pepsin = conditions: Umezawa et al, J. Antibiot. 1970; cited from earlier work
# blood pressure = conditions: after the injection of hog renin into nephrectomized rats; Gross et al, Science 1971; cited from earlier work
# renin = conditions: Umezawa et al, J. Antibiot. 1970; cited from earlier work
IC50 (human renin) [nM],SMILES,inhibitor of aspartyl proteases: cathepsin D (cathepsin D),inhibitor of aspartyl proteases: pepsin (pepsin),reduce blood pressure in vivo (blood pressure),inhibitor of aspartyl proteases: renin (renin)
28,"C#CC[C@H](O)[C@H](O)[C@H](CC1CCCCC1)NC(=O)[C@H](Cc1cscn1)NC(=O)[C@@H](CC(=O)N(C)CCN(C)C)Cc1ccccc1 [Example 1, N^1-[2-[[1S,1R*-(cyclohexylmethyl-2S*,3R*-dihydroxy-5-hexynyl]amino]-2-oxo-1R*-(4-thiazolylmethyl)ethyl]-N^4-[2-(dimethylamino)ethyl]-N^4-methyl-2S*-(phenylmethyl)butanediamide]",–,–,–,–
–,CC(C)CC(=O)N[C@H](C(=O)N[C@H](C(=O)N[C@@H](CC(C)C)[C@@H](O)CC(=O)N[C@@H](C)C(=O)N[C@@H](CC(C)C)[C@@H](O)CC(=O)O)C(C)C)C(C)C [pepstatin] (Isovaleryl-VV[Sta]A[Sta]-OH),"inhibitor of aspartyl proteases such as pepsin, cathepsin D",inhibitor of aspartyl proteases such as pepsin,found to reduce blood pressure in vivo,"inhibitor of aspartyl proteases such as pepsin, cathepsin D and renin"
